Measurements taken from patent publication US20220281970A1, “Pharmaceutical Combinations” (Novartis AG, priority 2018, published 2022).
≈ marks a conversion by molar mass, not a printed value.

Assays:
platelet (PLT) = assay: Population PK/PD platelet model parameter estimates (NLME, Monolix) from CHDM201X2101 dataset; type: in vivo, human; conditions: population estimate
Description: Based on the population PK/PD data of the clinical study CHDM201X2101, an AML patients platelet model was developed which recognizes that the disease influences the regulation of platelets production. The following graphic elucidates the model.
(§1) For model building the PK/PD dataset of CHDM201X2101 were used and an NLME estimation (Monolix 4.3.2) performed. The model structure and the parameter estimates are provided below. This provided inputs for R/shiny. The mlxR package were used for simulation of longitudinal data from the MLXTRAN model.
EP1=kr1*E^h/(E^h+EC50^h)+kr1D*Cc

hematological tumors = assay: Clinical study CHDM201X2101, HDM201 single agent; type: in vivo, human
Experimental: With this regimen, the RD has been determined as 45 mg HDM201 in hematological tumors in the CHDM201X2101 study. […] Proceedings of the American Association for Cancer Research Annual Meeting 2017; 2017 Apr. 1-5; Washington, D.C. Philadelphia (Pa.): AACR; Cancer Res 2017; 77 (13 Suppl): Abstract nr CT154. doi:10.1158/1538-7445.AM2017-CT154).
The starting dose and regimen selection for HDM201 in dose escalation is based on the previous Phase I dose escalation and expansion study of HDM201 as a single-agent in subjects with AML/MDS (CHDM201X2101) in which a dose of 45 mg/day (day 1-7/28-day cycle) was determined to be the RD. In this study, a starting dose and regimen of 20 mg/day HDM201 (day 1-5/28-day cycle) for dose escalation has been selected. The selection of dose and regimen was supported by single agent translational preclinical modeling of tumor bearing rats and population PK/PD modeling of thrombocytopenia and bone marrow blast data from CHDM201X2101 study in AML/MDS subjects. The starting dose corresponds to ˜[…] below the cumulative dose of HDM201 single agent RD (as evaluated in CHDM201X2101 at 45 mg/day (day 1-7/28-day cycle), or 315 mg/cycle). At this dose level, ˜15% of subjects are predicted to achieve preclinical derived average target efficacious concentrations of HDM201 per cycle, with some anticipated clinical activity (bone marrow blast reduction) and limited target myelosuppression.

Colon 26 cells = assay: Colon 26 Colorectal Cancer (CRC) syngeneic mouse model; type: in vivo
Experimental: Balb/c mice were implanted with 2×10^5 Colon 26 cells subcutaneously. Mice were treated with HDM201 at 40 mg/kg×3 every 3 h po on Days 10, 17 and 24 post cell implant, and anti-Tim3 antibody (murine cross reactive clone 5D12) at 5 mg/kg ip on days 10, 13, 17, and 20. End-point was defined as tumor volume equal or greater than 1000 mm^3.
The anti-tumor effects of HDM201 as a monotherapy or in combination with an anti-TIM3 antibody were evaluated in the Colon 26 Colorectal Cancer (CRC) syngeneic mouse model.

[1] = Population PK model parameter estimates (NLME, Monolix) from CHDM201X2101 dataset; type: in vivo, human; conditions: population estimate
Description: as §1
parameter={r, t1, t2, Tk0, ka, V, Cl, PLTz, MMTP, T12P, sPW, alp, lPW, kr1, kr1D, EC50, ke0, cfr, h, Sg, HGD, koutg, gdfZ, kinG}

[2] = Clinical study CMBG453X2101, MBG453 single agent in solid tumor subjects; type: in vivo, human; conditions: Q4W, based on PK and PKPD modeling of TIM-3 occupancy
Experimental: (§2) The MBG453 single agent RD has been determined as 800 mg Q4W in solid tumor subjects primarily based on PK and PKPD modeling of target (TIM-3) occupancy. MBG453 at the dose level of 800 mg Q4W was predicted to give sustained target occupancy of 90% in tumor in >90% of subjects. […] MBG453 single agent is also being evaluated in AML/MDS subjects in the CPDR001X2105 study with Q4W and Q2W regimens.

[3] = Clinical study CPDR001X2105, MBG453 in AML/MDS subjects; type: in vivo, human; conditions: 400 mg Q2W and 800 mg Q4W
Experimental: as §2
The RD in AML/MDS has not yet been determined, however it is not expected to be different from solid tumors, based on preliminary PK and safety data.

[4] = learning from clinical study CHDM201X2101
[5] = Balb/c mice, Colon 26 sc, HDM201 40 mg/kg x3 every 3 h po days 10, 17, 24, anti-Tim3 antibody 5 mg/kg ip days 10, 13, 17, 20

Molecule: COc1ncc(-c2nc3c(n2C(C)C)[C@H](c2ccc(Cl)cc2)N(c2cc(Cl)cn(C)c2=O)C3=O)c(OC)n1 [HDM201, (S)-5-(5-Chloro-1-methyl-2-oxo-1,2-dihydro-pyridin-3-yl)-6-(4-chloro-phenyl)-2-(2,4-dimethoxy-pyrimidin-5-yl)-1-isopropyl-5,6-dihydro-1H-pyrrolo[3,4-d]imidazol-4-one]
- EC50 (platelet (PLT); Homo sapiens, drug effect EP1 on platelet production, read-out: pop_EC50): 0.261 µg/mL (≈ 0.469 µM)
- pop_h (platelet (PLT); method=FIXED, exponent h in EP1): 2
- pop_kr1D (platelet (PLT); concentration-proportional term of EP1): 0.006491
- pop_ke0 (platelet (PLT); effect compartment): 6.152e-05
- pop_kr1 (platelet (PLT); maximal term of drug effect EP1): 2.1374
- RD (recommended dose) (hematological tumors; day 1-7/28-day cycle, single-agent, subjects with AML/MDS): 45 mg/day
- hematopoietic recovery on dosing in AML (hematological tumors; [4]): Delayed hematopoietic recovery
- platelet toxicity on dosing in AML (hematological tumors; [4]): Cumulative platelet toxicity
- RD (recommended dose) (hematological tumors; once daily day 1 to day 7 of a 28-day cycle, hematological tumors): 45 mg
- anti-tumor effects (tumor growth) (Colon 26 cells; [5]): inhibited tumor growth
- complete tumor regressions (CR) (Colon 26 cells; [5]): 1 CR
- anti-tumor immune memory / resistance to re-challenge (Colon 26 cells; mice with CR or long-term survival, Colon 26 cells): develop antitumor immunity and are resistant to re-challenge with the same tumor cells
- pop_Tk0 [1]: 1.314
- pop_Cl ([1]; method=FIXED): 6.18
- pop_V ([1]; method=FIXED): 119
- pop_ka ([1]; method=FIXED): 0.489
- pop_t1 ([1]; method=FIXED, absorption lag (Tlag=t1)): 0.69
- pop_t2 ([1]; method=FIXED, absorption lag (Tlag=t2)): 0.412
- pop_r ([1]; method=FIXED, fraction for zero-order absorption): 0.617

Molecule: MBG453: high-affinity, humanized anti-TIM-3 IgG4 monoclonal antibody which blocks the binding of TIM-3 to phosphatidylserin (PtdSer)
- single agent RD (recommended dose) [2]: 800 mg
- tolerability in AML/MDS [3]: well tolerated
